Results as given in patent EP0193189A1, “Novel compound, its production and insecticidal and acaricidal composition containing it as an active ingredient” (SUMITOMO CHEMICAL COMPANY, LIMITED, priority 1985, dated 1986).
≈ marks a conversion by molar mass, not a printed value. Like-named read-outs stand apart in the source and are kept apart here.

Experiments:
Assay type in all cases: in vivo
[1] = test system: common mosquito (Culex pipiens pallens); experiment: Test Example 1: common mosquito larvae in diluted emulsifiable concentrate, mortality and emergence inhibition; conditions: 3.5 ppm; for mortality at 3.5 ppm / pest or weed control at 3.5 ppm: Culex pipiens; for mortality at 3.5 ppm: 24 h, read-out: Mortality; for pest or weed control at 3.5 ppm: read-out: Inhibitory ratio of emergence
Method: The emulsifiable concentrates of the following present compounds obtained according to Formulation example 2 were each diluted with water so as to obtain respective aqueous solutions containing 3.5 ppm of said compounds, respectively. One hundred ml of thus diluted aqueous solutions were poured into respective polyethylene cups of 180 ml volume, and 20 of the last instar larvae of common mosquito (Culex pipiens pallens) were liberated thereto. After one day, the dead or alive of the larvae were examined.
Thereafter, the feed was added to respective cups and the number of emerged pupae of the respective cups was counted when all the pupae of no treatment group had emerged to calculate the inhibitory ratios of the emergence.
The mortality and the inhibitory ratio of the emergence are shown according to the following three criteria: • mortality: A; 90% or more, • B; less than 90% to 10%, • C; less than 10%. • inhibitory: A; 90% or more, ratio of • emergence B; less than 90% to 80% • C; less than 80%.

[2] = test system: tobacco cutworms (Spodoptera litura); experiment: Test Example 2: tobacco cutworm larvae on treated artificial feed; conditions: 150 ppm solution, 2 ml in 13 g artificial feed, 4th instar larvae, six days after; for mortality at 150 ppm: Spodoptera litura, 144 h, read-out: Mortality (%)
Text: The emulsifiable concentrates of the following present compounds obtained according to Formulation example 2 were each diluted with water to obtain respective 667 times dilution aqueous solutions (corresponding to 150 ppm) containing said compounds, respectively. Two ml of thus diluted solutions were impregnated into the artificial feeds (13 g) for tobacco cutworms (Spodoptera litura) and thus prepared feeds were placed in polyethylene cups of 11 cm in diameter, respectively. Ten of the 4th instar larvae were liberated thereon.
Six days after, the dead and alive of the larvae were examined to calculate the mortality (two replications).

[3] = test system: resistant strain of green rice leafhopper (Nephotetix cincticeps); experiment: Test Example 3: rice seedling dip test, resistant green rice leafhopper; conditions: Nephotettix cincticeps, 24 h, rice seedlings dipped 1 minute; adults of resistant strain; after one day; read-out: LC50 value (ppm)
Method: The emulsifiable concentrates of the following present compounds and control compounds obtained according to Formulation example 2 were each diluted with water to a prescribed concentration, and rice seedlings (about 12 cm in length) were dipped for 1 minute in the resulting aqueous dilute solutions. After air-drying, the seedlings were placed in test tube, and 10 adults of a resistant strain of green rice leafhopper (Nephotetix cincticeps) were liberated in the tube. After one day, the dead and alive of the adults were examined to obtain LC50 (50% lethal concentration)(two replications).

[4] = test system: brown rice planthoppers (Nila^parvata luqens); experiment: Test Example 7: spray on potted rice plants, brown rice planthopper, residual effect; conditions: 20 h, 100 ppm spray, 20 ml/2 pots, twenty hours after liberation
Method: The emulsifiable concentrates of the following compounds and control compounds obtained according to Formulation example 2 were each diluted with water one thousand times (corresponding to 100 ppm) and each of thus prepared solutions was sprayed at the rate of 20 ml/2 pots to the rice plant seedlings planted in Wagner pots having a surface area of one ten thousandth are. After air-drying, the treated plants were covered with the iron wire cages, and about 15 adults of brown rice planthoppers (Nila^parvata luqens) were liberated thereto. Further, about 15 adults thereof were also liberated thereto 4 days after the application to examine the residual effects. Twenty hours after each liberation, the dead and alive adults were examined to calculate the mortality.

[5] = test system: houseflies (Musca domestica) of WHO strains; experiment: Test Example 6: housefly filter paper and sucrose bait test; conditions: 0.7 ml on filter paper with sucrose bait, adult females, after 48 hours, read-out: LC50 value (ppm)
Method: On the bottom of a polyethylene cup of 5.5 cm- in diameter was placed a piece of filter paper of the same size as the bottom, and 0.7 ml of a test solution, prepared by diluting the emulsifiable concentrates of the following present compounds and control compounds prepared according to Formulation example 2 to a prescribed concentration with water, was added dropwise to the filter paper. Thirty milligrams of sucrose were uniformly placed on the filter paper as bait. Thereafter, 10 adult female houseflies (Musca domestica) of WHO strains were liberated in the cup, which was then covered with a lid. After 48 hours, the dead and alive were examined to obtain LC50 value (50% lethal concentration) (two replications).

[6] = test system: carmine spider mite (Tetranychus cinnabarinus); experiment: Test Example 8: carmine spider mite on potted kidney bean, degree of damage; design: key: -: No damage is observed.; +: Slight damage is observed.; ++: The same damage as in the untreated plot is observed; conditions: 500 ppm spray 10 ml/pot plus 2 ml soil treatment; after 8 days
Method: The female adults of carmine spider mite (Tetranychus cinnabarinus) were put at a rate of 10 adults/leaf on the leaves of potted kidney bean (at the primordial leaf stage) which had elapsed 7 days after sowing, and placed in a constant-temperature room kept at 25°C. After 6 days, the 200-fold aqueous dilute solutions (corresponding to 500 ppm), prepared from the emulsifiable concentrates of the following present compounds and control compounds prepared according to Formulation example 2, were each sprayed at a rate of 10 ml/pot on a turn table. At the same time, the soil in the pot was treated with 2 ml of each aqueous solution. After 8 days, the degree of damage of the plant by the mite was examined.
Criteria of the effect: • - : No damage is observed. • + : Slight damage is observed. • ++: The same damage as in the untreated plot is observed.

[7] = 20 last instar larvae, after one day
[8] = counted when all pupae of no treatment group had emerged
[9] = residual effect, read-out: Mortality (%) liberated 4 days after application
[10] = read-out: Mortality (%) liberated just after air-drying

Row | Compound | mortality at 3.5 ppm [1, 7] | pest or weed control at 3.5 ppm [1, 8] | mortality at 150 ppm [2] | LC50 [3] | other results
1 | C=CC(C)(CCCc1ccc(F)c(Oc2ccccc2)c1)c1ccc(OCC)cc1 (stereo not drawn) [(2)] | > 90% | > 90% | 100% | 80 µg/mL (≈ 198 µM) | mortality at 100 ppm [4, 9]: 100%; mortality at 100 ppm [4, 10]: 100%
2 | C#CC(C)(CCCc1ccc(F)c(Oc2ccccc2)c1)c1ccc(OC)cc1 (stereo not drawn) [(5)] | > 90% | > 90% | 100% | 56 µg/mL (≈ 144 µM) | LC50 [5]: 13 µg/mL (≈ 33.5 µM)
3 | C#CC(C)(CCCc1ccc(F)c(Oc2ccccc2)c1)c1ccc(OCC=C)cc1 (stereo not drawn) [(8)] | > 90% | > 90% | 100% | 54 µg/mL (≈ 130 µM) | 
4 | C#CC(C)(CCCc1ccc(F)c(Oc2ccccc2)c1)c1ccc(Cl)cc1 (stereo not drawn) [(10)] | > 90% | > 90% | 100% | 32 µg/mL (≈ 81.4 µM) | 
5 | C#CC(C)(CCCc1ccc(F)c(Oc2ccccc2)c1)c1ccc2c(c1)OCO2 (stereo not drawn) [(12)] | > 90% | > 90% | 100% | 63 µg/mL (≈ 157 µM) | LC50 [5]: 13 µg/mL (≈ 32.3 µM)
6 | C#CC(C)(CCCc1ccc(F)c(Oc2ccccc2)c1)c1ccc(C(F)(F)F)cc1 (stereo not drawn) [(13)] | > 90% | > 90% | 100% | 10 µg/mL (≈ 23.4 µM) | Degree of damage [6]: -
7 | C#CC(C)(CCCc1cccc(Oc2ccccc2)c1)c1ccc2c(c1)OCO2 (stereo not drawn) [(14)] | > 90% | > 90% | 100% |  | 
8 | C#CC(C)(CCCc1cccc(Oc2ccc(F)cc2)c1)c1ccc(OCC)cc1 (stereo not drawn) [(15)] | > 90% | > 90% | 100% | 3.6 µg/mL (≈ 8.94 µM) | 
9 | C#CC(C)(CCCc1cccc(Oc2ccccc2)c1)c1ccc(OCC)c(Cl)c1 (stereo not drawn) [(16)] | 10 to 90% | > 90% | 100% | 15 µg/mL (≈ 35.8 µM) | 
10 | C#CC(C)(CCCc1cccc(Oc2ccccc2)n1)c1ccc(OCC)cc1 (stereo not drawn) [(18), 3-(4-ethoxyphenyl)-3-methyl-6-(6-phenoxypyridin-2-yl)-l-hexyne] | > 90% | > 90% | 100% |  | Degree of damage [6]: - ~ +
11 | C=CC(C)(CCCc1cccc(Oc2ccccc2)n1)c1ccc(OCC)cc1 (stereo not drawn) [(19)] | 10 to 90% | > 90% |  |  | 
12 | C#CC(C)(CCCc1cccc(Sc2ccccc2)c1)c1ccc(OCC)cc1 (stereo not drawn) [(22)] | 10 to 90% | > 90% | 100% | 90 µg/mL (≈ 225 µM) | 
13 | C#CC(C)(CCCc1cccc(Oc2ccccc2)c1)c1ccc(CC)cc1 (stereo not drawn) [(23)] | > 90% | > 90% | 100% | 40 µg/mL (≈ 109 µM) | 
14 | C#CC(C)(CCCc1cccc(Oc2ccccc2)c1)c1ccc(OC)cc1 (stereo not drawn) [(24)] | 10 to 90% | > 90% | 100% | 27 µg/mL (≈ 72.9 µM) | 
15 | C#CC(C)(CCCc1cccc(Oc2ccccc2)c1)c1ccc(Cl)cc1 (stereo not drawn) [(25)] | > 90% | > 90% | 100% | 61 µg/mL (≈ 163 µM) | 
16 | C#CC(CC)(CCCc1cccc(Oc2ccccc2)c1)c1ccc(Cl)cc1 (stereo not drawn) [(26)] | > 90% | > 90% |  |  | 
17 | C#CC(C)(CCCc1ccc(F)c(Oc2ccccc2)c1)c1ccc(OC(F)F)c(Cl)c1 (stereo not drawn) [(27)] | 10 to 90% | > 90% |  | 31 µg/mL (≈ 67.6 µM) | LC50 [5]: 11 µg/mL (≈ 24 µM)

Row | Compound | mortality at 3.5 ppm [1, 7] | pest or weed control at 3.5 ppm [1, 8] | mortality at 150 ppm [2] | LC50 [3] | other results
18 | C#CC(CCCc1cccc(Oc2ccccc2)c1)c1ccc(OCC)cc1 (stereo not drawn) [(28)] | > 90% | > 90% |  |  | 
19 | C#CC(CC)(CCCc1ccc(F)c(Oc2ccccc2)c1)c1ccc(OCC)cc1 (stereo not drawn) [(29)] | > 90% | > 90% | 100% |  | 
20 | C#CC(C)(CCCc1ccc(F)c(Cc2ccccc2)c1)c1ccc(OCC)cc1 (stereo not drawn) [(30)] | > 90% | > 90% | 100% | 28 µg/mL (≈ 69.9 µM) | 
21 | C=CC(C)(CCCc1ccc(F)c(Nc2ccccc2)c1)c1ccc(OCC)cc1 (stereo not drawn) [(31)] | > 90% | > 90% | 100% |  | 
22 | C#CC(CC)(CCCc1cccc(Oc2ccccc2)c1)c1ccc(OCC)cc1 (stereo not drawn) [(32)] | > 90% | > 90% |  |  | 
23 | C#CC(C)(CCCc1ccc(F)c(Oc2ccc(C)cc2)c1)c1ccc(OCC)cc1 (stereo not drawn) [(33)] | > 90% | > 90% | 100% | 23 µg/mL (≈ 55.2 µM) | 
24 | C#CC(C)(CCCc1cccc(Oc2ccccc2)c1)c1ccc(F)cc1 (stereo not drawn) [(35)] | > 90% | > 90% | 100% | 93 µg/mL (≈ 259 µM) | 
25 | C#CC(C)(CCCc1ccc(F)c(Oc2ccccc2)c1)c1ccc(Cl)c(Cl)c1 (stereo not drawn) [(36)] | 10 to 90% | > 90% |  | 64 µg/mL (≈ 150 µM) | 
26 | C#CC(C)(CCCc1ccc(F)c(Oc2ccccc2)c1)c1ccc(C(F)(F)F)cc1 (stereo not drawn) [(37)] |  |  |  |  | Mortality ([1]; 20 last instar larvae, after one day, 1440 min): A (90% or more); Inhibitory ratio of emergence [1, 8]: A (90% or more); Mortality (%) ([2]; 8640 min): 100%; LC50 [5]: 13 µg/mL (≈ 30.5 µM)
27 | C#CC(C)(CCCc1ccc(F)c(Oc2ccc(F)cc2)c1)c1ccc(OCC)cc1 (stereo not drawn) [(38)] | > 90% | > 90% | 100% | 1.9 µg/mL (≈ 4.52 µM) | LC50 [5]: 14 µg/mL (≈ 33.3 µM)
28 | C#CC(C)(CCCc1ccc(F)c(Oc2ccccc2)c1)c1ccc(OCC=C)c(Cl)c1 (stereo not drawn) [(40)] | 10 to 90% | > 90% |  | 46 µg/mL (≈ 102 µM) | 
29 | C#CC(CC)(CCCc1ccc(F)c(Oc2ccccc2)c1)c1ccc(Cl)cc1 (stereo not drawn) [(41)] | > 90% | > 90% |  |  | 
30 | C#CC(CCCC)(CCCc1ccc(F)c(Oc2ccccc2)c1)c1ccc(OCC)cc1 (stereo not drawn) [(42)] | 10 to 90% | > 90% | 100% |  | 
31 | C#CC(C)(CCCc1cccc(Oc2ccccc2)n1)c1ccc(OC)cc1 (stereo not drawn) [(44), 3-(4-methoxyphenyl)-3-methyl-6-(6-phenoxy-pyridin-2-yl)-l-hexyne] | 10 to 90% | > 90% | 100% |  | 
32 | CCC(C)c1ccccc1OC(=O)NC (stereo not drawn) [(C), BPMC, reference compound] |  |  |  | 190 µg/mL (≈ 917 µM) | mortality at 100 ppm [4, 9]: 6%; mortality at 100 ppm [4, 10]: 100%
33 | Cc1cc(Cl)ccc1N=CN(C)C [(E), Chlordimeform, reference compound] |  |  |  |  | Degree of damage [6]: - ~ +
